“And” between values parts separate entries of the source, which are not always exact repeats. Equal entries are not always repeated. Inconclusive results and toxic doses are left out. *1 amine or outer side, *2 acyl side, *3 side chain or, on linkers, in order; H or OH if unused. Where a SMILES comes first, the peptide text is derived from it. Bridges are numbered along the chain shown (N, C = ends). Roman numbers before positions name the chains, in order. [ ]: non-standard residue; d: D form. Actinocin(9to1) = Cc1c2oc3c(C)ccc(C(=O)[*:1])c3nc-2c(C(=O)[*:2])c(N)c1=O; aThr = C[C@H](O)[C@H](N)C(=O)O; NMeV = CN[C@H](C(=O)O)C(C)C; Sar = CNCC(=O)O
Tested on: BDF1 mice, P388 leukemia (terephthalanilide-resistant), survival T/C
Assay: NCI In Vivo Anticancer Drug Screen. Data for tumor model P388 Leukemia resistant to A Terephthalanilide; NSC 38280 (intraperitoneal) in B6D2F1 (BDF1) mice
Details: endpoint: median survival time, higher = longer survival
Experimental: The antitumor activity of compounds was measured in mice bearing transplantable tumors. Survival or tumor size were measured and the results are expressed as the measurement made in the treated group (T) divided by the measurement made in the vehicle treated control group (C). The tumor model used in this assay is P388 Leukemia resistant to A Terephthalanilide; NSC 38280 (intraperitoneal) in B6D2F1 (BDF1) mice

[1] = dose: 40.0 mg/kg/injection, schedule: Q01DX010 (ip), vehicle: saline
[2] = dose: 90.0 mg/kg/injection, schedule: Q01DX010 (ip), vehicle: saline
[3] = dose: 0.25 mg/kg/injection, schedule: Q01DX010 (ip), vehicle: saline
[4] = dose: 16.0 mg/kg/injection, schedule: Q01DX010 (ip), vehicle: saline
[5] = dose: 64.0 mg/kg/injection, schedule: Q01DX010 (ip), vehicle: saline
[6] = dose: 62.5 mg/kg/injection, schedule: Q01DX010 (ip), vehicle: saline
[7] = dose: 125.0 mg/kg/injection, schedule: Q01DX010 (ip), vehicle: saline
[8] = dose: 250.0 mg/kg/injection, schedule: Q01DX010 (ip), vehicle: saline
[9] = dose: 500.0 mg/kg/injection, schedule: Q01DX010 (ip), vehicle: saline
[10] = dose: 25.0 micrograms/kg/injection, schedule: Q01DX010 (ip), vehicle: other
[11] = dose: 50.0 micrograms/kg/injection, schedule: Q01DX010 (ip), vehicle: other
[12] = dose: 31.3 mg/kg/injection, schedule: Q01DX010 (ip), vehicle: saline
[13] = dose: 1.25 mg/kg/injection, schedule: Q01DX010 (ip), vehicle: saline
[14] = dose: 2.5 mg/kg/injection, schedule: Q01DX010 (ip), vehicle: saline
[15] = dose: 10.0 mg/kg/injection, schedule: Q01DX010 (ip), vehicle: saline
[16] = dose: 5.0 mg/kg/injection, schedule: Q01DX010 (ip), vehicle: saline
[17] = dose: 200.0 mg/kg/injection, schedule: Q01DX010 (ip), vehicle: saline
[18] = dose: 8.0 mg/kg/injection, schedule: Q01DX010 (ip), vehicle: saline

SMILES: CN(N=O)C(=O)NC(C=O)C(O)C(O)C(O)CO (stereo not drawn)
- T/C (dose: 27.0 mg/kg/injection, schedule: Q01DX010 (ip), vehicle: saline): 109 % of control
- T/C [1]: 113 % of control
- T/C (dose: 60.0 mg/kg/injection, schedule: Q01DX010 (ip), vehicle: saline): 154 % of control
- T/C [2]: 113 % of control

SMILES: O=C(Nc1ccc(NC(=O)Nc2ccc(C3=NCCN3)cc2)cc1)Nc1ccc(C2=NCCN2)cc1
- T/C (dose: 110.0 mg/kg/injection, schedule: Q01DX010 (ip), vehicle: saline): 111 % of control

SMILES: O=P1(N(CCCl)CCCl)NCCCO1 (stereo not drawn)
- T/C (dose: 11.3 mg/kg/injection, schedule: Q01DX005 (ip), vehicle: saline): 100 % of control and 109 % of control
- T/C (dose: 11.3 mg/kg/injection, schedule: Q01DX010 (ip), vehicle: saline): 111 % of control
- T/C (dose: 22.5 mg/kg/injection, schedule: Q01DX005 (ip), vehicle: saline): 118 % of control and 122 % of control
- T/C (dose: 45.0 mg/kg/injection, schedule: Q01DX005 (ip), vehicle: saline): 154 % of control
- T/C (dose: 45.0 mg/kg/injection, schedule: Q01DX010 (ip), vehicle: saline): 183 % of control
- T/C (dose: 90.0 mg/kg/injection, schedule: Q01DX005 (ip), vehicle: saline): 272 % of control
- T/C [2]: 105 % of control
- T/C (dose: 180.0 mg/kg/injection, schedule: Q01DX010 (ip), vehicle: saline): 88 % of control

SMILES: C1CN1c1nc(N2CC2)nc(N2CC2)n1
- T/C (dose: 0.13 mg/kg/injection, schedule: Q01DX010 (ip), vehicle: saline): 94 % of control and 100 % of control
- T/C [3]: 105 % of control and 116 % of control
- T/C (dose: 0.5 mg/kg/injection, schedule: Q01DX010 (ip), vehicle: saline): 116 % of control
- T/C (dose: 1.0 mg/kg/injection, schedule: Q01DX010 (ip), vehicle: saline): 111 % of control

SMILES: O=C(Nc1ccc(C2=NCCN2)cc1)c1cc(Cl)cc(C(=O)Nc2ccc(C3=NCCN3)cc2)c1
- T/C (dose: 140.0 mg/kg/injection, schedule: Q01DX010 (ip), vehicle: saline): 100 % of control
- T/C (dose: 210.0 mg/kg/injection, schedule: Q01DX010 (ip), vehicle: saline): 100 % of control
- T/C (dose: 315.0 mg/kg/injection, schedule: Q01DX010 (ip), vehicle: saline): 100 % of control
- T/C (dose: 473.0 mg/kg/injection, schedule: Q01DX010 (ip), vehicle: saline): 94 % of control

SMILES: Nc1cc(C(=O)Nc2ccc(C3=NCCN3)cc2)cc(C(=O)Nc2ccc(C3=NCCN3)cc2)c1
- T/C [4]: 111 % of control
- T/C [5]: 183 % of control

SMILES: CC[C@]1(O)C[C@H]2CN(CCc3c([nH]c4ccccc34)[C@@](C(=O)OC)(c3cc4c(cc3OC)N(C=O)[C@H]3[C@@](O)(C(=O)OC)[C@H](OC(C)=O)[C@]5(CC)C=CCN6CC[C@]43[C@@H]65)C2)C1
- T/C (dose: 0.03 mg/kg/injection, schedule: Q01DX010 (ip), vehicle: saline): 105 % of control
- T/C (dose: 0.03 mg/kg/injection, schedule: Q01DX Z (ip), vehicle: saline): 90 % of control and 100 % of control
- T/C (dose: 0.06 mg/kg/injection, schedule: Q01DX010 (ip), vehicle: saline): 100 % of control
- T/C (dose: 0.06 mg/kg/injection, schedule: Q01DX Z (ip), vehicle: saline): 95 % of control
- T/C (dose: 0.12 mg/kg/injection, schedule: Q01DX010 (ip), vehicle: saline): 111 % of control
- T/C (dose: 0.13 mg/kg/injection, schedule: Q01DX Z (ip), vehicle: saline): 100 % of control
- T/C [3]: 94 % of control
- T/C (dose: 0.25 mg/kg/injection, schedule: Q01DX Z (ip), vehicle: saline): 100 % of control
- T/C (dose: 0.5 mg/kg/injection, schedule: Q01DX Z (ip), vehicle: saline): 95 % of control and 100 % of control

SMILES: c1ccc(CCSc2ncnc3nc[nH]c23)cc1
- T/C [6]: 90 % of control
- T/C [7]: 90 % of control
- T/C [8]: 100 % of control
- T/C [9]: 100 % of control

SMILES: Nc1nc(N)c2nc(CNc3ccc(C(=O)NC(CCC(=O)O)C(=O)O)cc3)cnc2n1 (stereo not drawn)
- T/C [10]: 112 % of control
- T/C [11]: 112 % of control
- T/C (dose: 200.0 micrograms/kg/injection, schedule: Q01DX010 (ip), vehicle: other): 150 % of control

SMILES: CCn1cnc2c(=S)nc[nH]c21
- T/C (dose: 15.6 mg/kg/injection, schedule: Q01DX010 (ip), vehicle: saline): 100 % of control and 105 % of control
- T/C [12]: 105 % of control and 110 % of control
- T/C [6]: 94 % of control and 100 % of control
- T/C [7]: 110 % of control

SMILES: Cc1c2oc3c(C)ccc(C(=O)N[C@@H]4C(=O)N[C@H](C(C)C)C(=O)N5CCC[C@H]5C(=O)N(C)CC(=O)N(C)[C@@H](C(C)C)C(=O)O[C@H]4C)c3nc-2c(C(=O)N[C@@H]2C(=O)N[C@H](C(C)C)C(=O)N3CCC[C@H]3C(=O)N(C)CC(=O)N(C)[C@@H](C(C)C)C(=O)O[C@H]2C)c(N)c1=O (I: [aThr][dV]P[Sar][NMeV] / II: [aThr][dV]P[Sar][NMeV]; ester I:1-I:C, II:1-II:C; linker I:N-II:N via Actinocin(9to1))
- T/C (dose: 12.5 micrograms/kg/injection, schedule: Q01DX010 (ip), vehicle: other): 111 % of control and 120 % of control
- T/C [10]: 116 % of control and 120 % of control
- T/C [11]: 120 % of control and 122 % of control
- T/C (dose: 100.0 micrograms/kg/injection, schedule: Q01DX010 (ip), vehicle: other): 115 % of control and 122 % of control

SMILES: Nc1nc(=S)c2[nH]cnc2[nH]1
- T/C [13]: 162 % of control
- T/C [14]: 150 % of control and 175 % of control
- T/C [15]: 112 % of control

SMILES: CN(C)c1ccc(/C=C/c2ccnc3ccccc23)cc1
- T/C [16]: 100 % of control and 111 % of control
- T/C [15]: 100 % of control and 111 % of control
- T/C (dose: 20.0 mg/kg/injection, schedule: Q01DX010 (ip), vehicle: saline): 90 % of control and 94 % of control
- T/C [1]: 116 % of control

SMILES: O=C1C(NC(=O)C2CCCCC2)=C(N2CC2)C(=O)C(NC(=O)C2CCCCC2)=C1N1CC1
- T/C [17]: 90 % of control

SMILES: Nc1nc(SCc2ccccc2)c2[nH]cnc2n1
- T/C [18]: 105 % of control
- T/C [4]: 100 % of control and 105 % of control
- T/C (dose: 32.0 mg/kg/injection, schedule: Q01DX010 (ip), vehicle: saline): 121 % of control
- T/C [5]: 115 % of control and 122 % of control

SMILES: O=C(Nc1ccc(NC2=NCCN2)cc1)c1ccc(C(=O)Nc2ccc(NC3=NCCN3)cc2)cc1
- T/C (dose: 2.0 mg/kg/injection, schedule: Q01DX010 (ip), vehicle: saline): 100 % of control and 106 % of control
- T/C (dose: 4.0 mg/kg/injection, schedule: Q01DX010 (ip), vehicle: saline): 150 % of control
- T/C [18]: 181 % of control

SMILES: O=C(Nc1ccc(C2=NCCN2)cc1)c1cccc(C(=O)Nc2ccc(C3=NCCN3)cc2)c1
- T/C [18]: 112 % of control
- T/C [5]: 150 % of control

SMILES: N#[N+]c1cnc([O-])[nH]c1=O
- T/C [13]: 113 % of control
- T/C [14]: 113 % of control
- T/C [16]: 95 % of control and 122 % of control

SMILES: CN(C)c1ccc(Nc2c3ccccc3nc3ccccc23)cc1
- T/C [4]: 95 % of control
- T/C (dose: 24.0 mg/kg/injection, schedule: Q01DX010 (ip), vehicle: saline): 104 % of control
- T/C (dose: 36.0 mg/kg/injection, schedule: Q01DX010 (ip), vehicle: saline): 100 % of control and 104 % of control and 108 % of control
- T/C (dose: 54.0 mg/kg/injection, schedule: Q01DX010 (ip), vehicle: saline): 95 % of control and 100 % of control and 104 % of control
- T/C (dose: 80.0 mg/kg/injection, schedule: Q01DX010 (ip), vehicle: saline): 90 % of control and 109 % of control

SMILES: C[C@H]1C(=O)O[C@@H]2CCN3CC=C(COC(=O)[C@](C)(O)[C@@]1(C)O)[C@H]23
- T/C (dose: 3.13 mg/kg/injection, schedule: Q01DX010 (ip), vehicle: saline): 90 % of control and 100 % of control
- T/C (dose: 6.25 mg/kg/injection, schedule: Q01DX010 (ip), vehicle: saline): 95 % of control
- T/C (dose: 12.5 mg/kg/injection, schedule: Q01DX010 (ip), vehicle: saline): 95 % of control and 100 % of control
- T/C (dose: 25.0 mg/kg/injection, schedule: Q01DX010 (ip), vehicle: saline): 105 % of control and 109 % of control

SMILES: CCOC(=O)NP(=O)(N1CC1(C)C)N1CC1(C)C (stereo not drawn)
- T/C [12]: 110 % of control
- T/C [6]: 160 % of control
- T/C [7]: 190 % of control
- T/C [8]: 160 % of control

SMILES: CS(=O)(=O)OCC(O)C(O)C(O)C(O)COS(C)(=O)=O (stereo not drawn)
- T/C (dose: 50.0 mg/kg/injection, schedule: Q01DX010 (ip), vehicle: saline): 100 % of control
- T/C (dose: 100.0 mg/kg/injection, schedule: Q01DX010 (ip), vehicle: saline): 100 % of control
- T/C [17]: 100 % of control
- T/C (dose: 400.0 mg/kg/injection, schedule: Q01DX010 (ip), vehicle: saline): 100 % of control

SMILES: O=CCC(O)C(O)C(O)CO (stereo not drawn)
- T/C [6]: 110 % of control and 111 % of control
- T/C [7]: 100 % of control and 110 % of control
- T/C [8]: 110 % of control and 111 % of control
- T/C [9]: 115 % of control and 122 % of control

Source: PubChem BioAssay AID338 (DTP/NCI, 2004)
